Assay results taken from ChEMBL document CHEMBL3885881, “DrugMatrix”.

Organism: Rattus norvegicus
Experiment: DrugMatrix - Regimen: Daily Repeat
Assay type: toxicity, organism-based, Sprague-Dawley
Parameters: regimen Daily Repeat, gender Male, age 6-8 weeks
Details: in vivo, po, route oral GAVAGE, […]; for ABSOLUTE BASOPHIL / ABSOLUTE EOSINOPHIL / ABSOLUTE LYMPHOCYTE / ABSOLUTE MONOCYTE / ABSOLUTE SEGMENTED NEUTROPHIL / BASOPHIL / EOSINOPHIL / ERYTHROCYTE COUNT / HEMATOCRIT / HEMOGLOBIN / LEUKOCYTE COUNT / LYMPHOCYTE / MEAN CORPUSCULAR HEMOGLOBIN / MEAN CORPUSCULAR HEMOGLOBIN CONCENTRATION / MEAN CORPUSCULAR VOLUME / MONOCYTE / NEUTROPHIL / NUCLEATED RED BLOOD CELLS / PLATELET COUNT: tissue Blood; for ALANINE AMINOTRANSFERASE / ALBUMIN / ALKALINE PHOSPHATASE / ASPARTATE AMINOTRANSFERASE / BLOOD UREA NITROGEN / CARBON DIOXIDE / CHLORIDE / CHOLESTEROL / CREATINE PHOSPHOKINASE / CREATININE / GLUCOSE / LACTATE DEHYDROGENASE / LIPASE / PHOSPHORUS / POTASSIUM / SODIUM / TOTAL BILIRUBIN / TOTAL PROTEIN / URIC ACID: tissue Plasma
[1] = 0 mg/kg, 72 h, dose level Control, time 3 day
[2] = 0 mg/kg, 120 h, dose level Control, time 5 day
[3] = 100 mg/kg, 72 h, dose level Low, time 3 day

Structure (SMILES): CC(=O)Nc1cccc(O)c1 [METACETAMOL]
- ABSOLUTE BASOPHIL [1]: 0 CELLS/uL
- ABSOLUTE EOSINOPHIL [1]: 0 CELLS/uL
- ABSOLUTE LYMPHOCYTE [1]: 14687.67 CELLS/uL
- ABSOLUTE MONOCYTE [1]: 164 CELLS/uL
- ABSOLUTE SEGMENTED NEUTROPHIL [1]: 1748.33 CELLS/uL
- BASOPHIL [1]: 0%
- EOSINOPHIL [1]: 0%
- ERYTHROCYTE COUNT [1]: 5.51 x10E6/uL
- HEMATOCRIT [1]: 33.68%
- HEMOGLOBIN [1]: 13.4 G/DL
- LEUKOCYTE COUNT [1]: 16.6 x10E3/uL
- LYMPHOCYTE [1]: 88.83%
- MEAN CORPUSCULAR HEMOGLOBIN [1]: 24.47 pg
- MEAN CORPUSCULAR HEMOGLOBIN CONCENTRATION [1]: 39.82 G/DL
- MEAN CORPUSCULAR VOLUME [1]: 61.23 fL
- MONOCYTE [1]: 0.83%
- NEUTROPHIL [1]: 10.33%
- NUCLEATED RED BLOOD CELLS [1]: 0 /100WBC
- PLATELET COUNT [1]: 1329.67 x10E3/uL
- ALANINE AMINOTRANSFERASE [1]: 61.33 u/L
- ALBUMIN [1]: 4.18 G/DL
- ALKALINE PHOSPHATASE [1]: 332.5 u/L
- ASPARTATE AMINOTRANSFERASE [1]: 98.33 u/L
- BLOOD UREA NITROGEN [1]: 15.83 mg/dL
- CARBON DIOXIDE [1]: 27.83 mmol/L
- CHLORIDE [1]: 100 MEQ/L
- CHOLESTEROL [1]: 76.17 mg/dL
- CREATINE PHOSPHOKINASE [1]: 729.17 u/L
- CREATININE [1]: 0.21 mg/dL
- GLUCOSE [1]: 151.83 mg/dL
- LACTATE DEHYDROGENASE [1]: 484.67 u/L
- LIPASE [1]: 10 u/L
- PHOSPHORUS [1]: 11.3 mg/dL
- POTASSIUM [1]: 6.1 MEQ/L
- SODIUM [1]: 142.9 MEQ/L
- TOTAL BILIRUBIN [1]: 0.23 mg/dL
- TOTAL PROTEIN [1]: 5.68 G/DL
- URIC ACID [1]: 1.75 mg/dL
- ABSOLUTE BASOPHIL [2]: 0 CELLS/uL
- ABSOLUTE EOSINOPHIL [2]: 58.67 CELLS/uL
- ABSOLUTE LYMPHOCYTE [2]: 15950.83 CELLS/uL
- ABSOLUTE MONOCYTE [2]: 172.5 CELLS/uL
- ABSOLUTE SEGMENTED NEUTROPHIL [2]: 2551.33 CELLS/uL
- BASOPHIL [2]: 0%
- EOSINOPHIL [2]: 0.33%
- ERYTHROCYTE COUNT [2]: 5.5 x10E6/uL
- HEMATOCRIT [2]: 34.05%
- HEMOGLOBIN [2]: 13.42 G/DL
- LEUKOCYTE COUNT [2]: 18.73 x10E3/uL
- LYMPHOCYTE [2]: 84.5%
- MEAN CORPUSCULAR HEMOGLOBIN [2]: 24.42 pg
- MEAN CORPUSCULAR HEMOGLOBIN CONCENTRATION [2]: 39.42 G/DL
- MEAN CORPUSCULAR VOLUME [2]: 61.97 fL
- MONOCYTE [2]: 1%
- NEUTROPHIL [2]: 14.17%
- NUCLEATED RED BLOOD CELLS [2]: 0.33 /100WBC
- PLATELET COUNT [2]: 1143.17 x10E3/uL
- ALANINE AMINOTRANSFERASE [2]: 57 u/L
- ALBUMIN [2]: 4.17 G/DL
- ALKALINE PHOSPHATASE [2]: 347.33 u/L
- ASPARTATE AMINOTRANSFERASE [2]: 93.67 u/L
- BLOOD UREA NITROGEN [2]: 15.67 mg/dL
- CARBON DIOXIDE [2]: 27.17 mmol/L
- CHLORIDE [2]: 104.33 MEQ/L
- CHOLESTEROL [2]: 69.5 mg/dL
- CREATINE PHOSPHOKINASE [2]: 317.17 u/L
- CREATININE [2]: 0.2 mg/dL
- GLUCOSE [2]: 162.33 mg/dL
- LACTATE DEHYDROGENASE [2]: 408.67 u/L
- LIPASE [2]: 10.17 u/L
- PHOSPHORUS [2]: 11.08 mg/dL
- POTASSIUM [2]: 6.36 MEQ/L
- SODIUM [2]: 146.07 MEQ/L
- TOTAL BILIRUBIN [2]: 0.22 mg/dL
- TOTAL PROTEIN [2]: 5.92 G/DL
- URIC ACID [2]: 1.47 mg/dL
- ABSOLUTE BASOPHIL [3]: 0 CELLS/uL
- ABSOLUTE EOSINOPHIL [3]: 56.67 CELLS/uL
- ABSOLUTE LYMPHOCYTE [3]: 16234.67 CELLS/uL
- ABSOLUTE MONOCYTE [3]: 197 CELLS/uL
- ABSOLUTE SEGMENTED NEUTROPHIL [3]: 1911.67 CELLS/uL
- BASOPHIL [3]: 0%
- EOSINOPHIL [3]: 0.33%
- ERYTHROCYTE COUNT [3]: 5.37 x10E6/uL
- HEMATOCRIT [3]: 33.67%
- HEMOGLOBIN [3]: 13.43 G/DL
- LEUKOCYTE COUNT [3]: 18.4 x10E3/uL
- LYMPHOCYTE [3]: 88.33%
- MEAN CORPUSCULAR HEMOGLOBIN [3]: 25 pg
- MEAN CORPUSCULAR HEMOGLOBIN CONCENTRATION [3]: 39.93 G/DL
- MEAN CORPUSCULAR VOLUME [3]: 62.73 fL
- MONOCYTE [3]: 1%
- NEUTROPHIL [3]: 10.33%
- NUCLEATED RED BLOOD CELLS [3]: 0 /100WBC
- PLATELET COUNT [3]: 1217 x10E3/uL
- ALANINE AMINOTRANSFERASE [3]: 68.67 u/L
- ALBUMIN [3]: 4.23 G/DL
- ALKALINE PHOSPHATASE [3]: 369.67 u/L
- ASPARTATE AMINOTRANSFERASE [3]: 101.67 u/L
- BLOOD UREA NITROGEN [3]: 14.67 mg/dL
- CARBON DIOXIDE [3]: 31 mmol/L
- CHLORIDE [3]: 100.67 MEQ/L
- CHOLESTEROL [3]: 76.33 mg/dL
- CREATINE PHOSPHOKINASE [3]: 371.33 u/L
- CREATININE [3]: 0.22 mg/dL
- GLUCOSE [3]: 142.67 mg/dL
- LACTATE DEHYDROGENASE [3]: 561.67 u/L
- LIPASE [3]: 10.33 u/L
- PHOSPHORUS [3]: 11.3 mg/dL
- POTASSIUM [3]: 6.59 MEQ/L
- SODIUM [3]: 143.83 MEQ/L
- TOTAL BILIRUBIN [3]: 0.23 mg/dL
- TOTAL PROTEIN [3]: 5.8 G/DL
- URIC ACID [3]: 1.7 mg/dL
